{"source": "paper PMC7655512", "about": "(Cell stem cell, 2020)", "key": {"HD.CDI hiPSC-CMs": {"test_system": "HD.CDI hiPSC-CMs", "test": "High throughput optical action potential recording, healthy donor hiPSC-CMs", "settings": "result in words"}, "[1]": {"test_system": "HD.113 hiPSC-CMs treated with ATX-II", "test": "High dose ATX-II induced arrhythmia in healthy donor hiPSC-CMs", "type": "cell-based, human", "settings": "ATX-II 1 μM; result in words"}, "[2]": {"test_system": "LQT3 SCN5A N406K hiPSC-CMs", "test": "Optical voltage assay, second genetic LQT3 model", "type": "cell-based, human", "settings": "result in words"}, "[3]": {"test_system": "genetic and pharmacological LQT3 hiPSC-CM models", "test": "Optical voltage assay across genetic and pharmacological LQT3 hiPSC-CM models", "type": "cell-based, human", "settings": "for general APD effect at low or high doses: summary over all models, result in words"}, "SCN5A L409P/R588 mutant": {"target": "SCN5A L409P/R588 mutant (Homo sapiens, UniProt Q14524, H558R/L409P)", "sequence (Q14524 whole entry L409P/H558R)": "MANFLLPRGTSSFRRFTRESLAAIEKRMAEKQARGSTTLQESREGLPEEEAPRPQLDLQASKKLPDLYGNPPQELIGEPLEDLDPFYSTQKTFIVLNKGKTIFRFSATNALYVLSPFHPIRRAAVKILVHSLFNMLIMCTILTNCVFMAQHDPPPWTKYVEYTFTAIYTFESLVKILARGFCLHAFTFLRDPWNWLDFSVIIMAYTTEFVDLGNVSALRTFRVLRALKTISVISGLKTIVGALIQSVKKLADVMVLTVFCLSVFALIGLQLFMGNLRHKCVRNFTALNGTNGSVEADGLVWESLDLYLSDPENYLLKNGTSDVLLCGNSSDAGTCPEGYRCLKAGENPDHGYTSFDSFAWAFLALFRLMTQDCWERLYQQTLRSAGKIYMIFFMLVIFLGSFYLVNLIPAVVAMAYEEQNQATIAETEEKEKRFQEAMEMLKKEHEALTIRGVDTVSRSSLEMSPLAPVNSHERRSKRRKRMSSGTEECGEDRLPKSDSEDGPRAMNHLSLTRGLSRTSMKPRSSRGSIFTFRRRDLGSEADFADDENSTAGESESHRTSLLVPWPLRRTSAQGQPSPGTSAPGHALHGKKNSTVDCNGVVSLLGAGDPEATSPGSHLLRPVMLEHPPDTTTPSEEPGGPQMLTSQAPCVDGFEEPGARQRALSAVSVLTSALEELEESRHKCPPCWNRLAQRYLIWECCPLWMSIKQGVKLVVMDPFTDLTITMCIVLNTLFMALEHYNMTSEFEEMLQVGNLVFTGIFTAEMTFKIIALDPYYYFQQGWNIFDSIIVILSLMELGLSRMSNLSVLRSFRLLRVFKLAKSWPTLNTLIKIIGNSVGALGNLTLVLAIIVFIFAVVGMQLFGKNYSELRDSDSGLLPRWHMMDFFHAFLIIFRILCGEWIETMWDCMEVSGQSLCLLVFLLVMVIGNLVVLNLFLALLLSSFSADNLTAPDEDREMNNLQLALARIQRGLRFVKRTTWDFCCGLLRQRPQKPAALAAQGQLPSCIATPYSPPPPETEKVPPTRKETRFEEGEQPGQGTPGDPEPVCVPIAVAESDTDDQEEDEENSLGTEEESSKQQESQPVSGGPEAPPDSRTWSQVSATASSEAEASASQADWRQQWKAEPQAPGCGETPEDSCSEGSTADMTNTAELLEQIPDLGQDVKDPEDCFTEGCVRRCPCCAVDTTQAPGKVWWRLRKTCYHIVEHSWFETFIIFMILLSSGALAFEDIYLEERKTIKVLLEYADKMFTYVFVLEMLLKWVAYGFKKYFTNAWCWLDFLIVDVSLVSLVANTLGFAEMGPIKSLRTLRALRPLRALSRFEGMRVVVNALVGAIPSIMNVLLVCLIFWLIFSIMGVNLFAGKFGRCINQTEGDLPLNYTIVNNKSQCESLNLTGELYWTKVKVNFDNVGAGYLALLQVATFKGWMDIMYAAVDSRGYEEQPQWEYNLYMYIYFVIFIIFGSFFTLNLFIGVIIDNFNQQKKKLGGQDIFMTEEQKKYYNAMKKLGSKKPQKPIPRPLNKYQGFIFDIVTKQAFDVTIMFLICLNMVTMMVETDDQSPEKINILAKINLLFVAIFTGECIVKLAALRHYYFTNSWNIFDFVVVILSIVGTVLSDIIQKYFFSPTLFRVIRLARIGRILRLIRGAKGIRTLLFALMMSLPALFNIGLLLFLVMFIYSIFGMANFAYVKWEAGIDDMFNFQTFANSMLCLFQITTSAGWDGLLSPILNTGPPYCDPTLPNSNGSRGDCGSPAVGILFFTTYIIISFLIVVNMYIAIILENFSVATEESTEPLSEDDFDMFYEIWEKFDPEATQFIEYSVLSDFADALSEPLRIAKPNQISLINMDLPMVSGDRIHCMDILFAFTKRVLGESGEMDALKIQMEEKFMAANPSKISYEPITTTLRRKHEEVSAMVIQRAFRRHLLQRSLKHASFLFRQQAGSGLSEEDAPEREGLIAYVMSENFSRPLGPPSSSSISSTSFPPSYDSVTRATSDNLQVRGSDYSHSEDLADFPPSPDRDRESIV", "test": "Automated planar patch clamp of LQT3 mutant channel in HEK293T cells", "type": "cell-based", "settings": "for preference of block between INaP and INaL: result in words"}}, "data": [{"compound": "NC(COc1ccccc1C(F)(F)F)c1ccccc1", "note": "(stereo not shown) [MexA4, 1-Phenyl-2-(2-(trifluoromethyl)phenoxy)ethan-1-amine]", "values": [{"measurement": "proarrhythmic response (APD prolongation, EADs)", "setting": "HD.CDI hiPSC-CMs", "value": "not proarrhythmic"}]}, {"compound": "FC(F)(F)Oc1ccc(-c2ccc3nnc(C(F)(F)F)n3c2)cc1", "note": "[GS-967]", "values": [{"measurement": "suppression of ATX-II induced arrhythmia", "setting": "[1]", "value": "effective"}, {"measurement": "suppression of spontaneous arrhythmia", "setting": "[2]", "value": "effective"}, {"measurement": "general APD effect at low or high doses", "setting": "[3]", "value": "most pronounced shortening at low doses"}]}, {"compound": "COc1ccccc1OCC(O)CN1CCN(CC(=O)Nc2c(C)cccc2C)CC1", "note": "(stereo not shown) [ranolazine]", "values": [{"measurement": "suppression of ATX-II induced arrhythmia", "setting": "[1]", "value": "blocked arrhythmia only in the genetic LQT3 model"}, {"measurement": "APD change", "setting": "[2]", "value": "did not shorten APD and induced EADs at high doses"}, {"measurement": "suppression of spontaneous arrhythmia", "setting": "[2]", "value": "blocked arrhythmia only in the genetic LQT3 model"}, {"measurement": "general APD effect at low or high doses", "setting": "[3]", "value": "prolonged the APD at high doses"}]}, {"compound": "Cc1cccc(C)c1OCC(C)N", "note": "(stereo not shown) [mexiletine, Mexiletine]", "values": [{"measurement": "APD change", "setting": "[2]", "value": "weakly"}, {"measurement": "APD change across LQT3 hiPSC-CM models", "setting": "[3]", "value": "substantially prolonged the AP in all hiPSC-CMs examined"}, {"measurement": "APD shortening in pharmacological LQT3 models", "setting": "[3]", "value": "not in all the pharmacological models"}, {"measurement": "general APD effect at low or high doses", "setting": "[3]", "value": "prolonged the APD at high doses"}, {"measurement": "proarrhythmic response (APD prolongation, EADs)", "setting": "HD.CDI hiPSC-CMs", "value": "proarrhythmic response"}]}, {"compound": "COCCNC(COc1cccc(C)c1C)c1ccccc1", "note": "(stereo not shown) [MexA5, 2-(2,3-dimethylphenoxy)-N-(2-methoxyethyl)-1-phenylethan-1-amine]", "values": [{"measurement": "suppression of spontaneous arrhythmia", "setting": "[2]", "value": "terminated spontaneous arrhythmias"}, {"measurement": "general APD effect at low or high doses", "setting": "[3]", "value": "most pronounced shortening at low doses"}, {"measurement": "asystole effect, change with N-ethyl methoxy substitution", "setting": "HD.CDI hiPSC-CMs; high concentrations", "value": "decreased this effect"}]}, {"compound": "Cc1ccccc1OCC(N)c1ccccc1", "note": "(stereo not shown) [MexA2, 1-Phenyl-2-(o-tolyloxy)ethan-1-amine]", "values": [{"measurement": "preference of block between INaP and INaL", "setting": "SCN5A L409P/R588 mutant", "value": "preferentially blocked INaP over INaL"}]}, {"compound": "Cc1cc(C)cc(OCC(N)c2ccccc2)c1", "note": "(stereo not shown) [MexA3]", "values": [{"measurement": "block of INaL", "setting": "SCN5A L409P/R588 mutant", "value": "did not block INaL"}, {"measurement": "preference of block between INaP and INaL", "setting": "SCN5A L409P/R588 mutant", "value": "preferentially blocked INaP over INaL"}]}]}
